Results: patent US8901317B2, “Tryptamine derivatives, their preparation and their use in gastropathy” (Council of Scientific & Industrial Research, priority 2010, dated 2014)

Columns and labels:
[1] = Ferric reducing antioxidant power (FRAP) assay; details: compound at 10 μM relative to ferrous sulfate; for FRAP Value6 min (μM) M ± SD: 6 min; for FRAP Value65 min (μM) M ± SD: 65 min
Procedure: The antioxidant property of different tryptamine derivatives were assessed and compared with the known antioxidants for potency. […] The FRAP assay is based on the measurement of the ability of the substance to reduce Fe^3+ to Fe^2+, greater the reducing ability greater the anti oxidant property. Antioxidants reduce Fe^3+-TPTZ in to blue colored Fe^2+-TPTZ complex, which results in an increase in the absorbance at 595 nm giving a FRAP value. […] Absorbance changes at different time intervals (FIG. 6) as well as at different concentrations (FIG. 7) at time 6 min in the presence of different compounds at 595 nm were measured. FRAP values at 6 min and 65 min were calculated from different tryptamine derivatives and some known antioxidant (Table 1). […] DPPH assay based on the DPPH free radicals scavenging power of the antioxidant molecules. Higher the scavenging power higher will be the antioxidant property.
The assay was performed in a 96-well microplate. FRAP reagent was prepared by mixing of 10 ml acetate buffer (200 mM, pH-3.6), 1 ml of 2,4,6-tris(2-pyridyl)-s-triazine (TPTZ) solution (10 mM in 40 mM HCl) and 1 ml of ferric chloride solution (20 mM) in distilled water. For 1 h the mixture was kept in a water bath at 37° C. In 96-well microplates, 25 μL of the compounds under investigation dissolved (in methanol, some compound dissolved in water) at different concentrations in the range 1-25 μM was placed in triplicate and freshly prepared FRAP solution (175 μL) was added to this sample. A micro plate reader monitored the absorbance at 595 nm at different time intervals for up to 150 min. The absorbance of a mixture 175 μL TRAP sol and 25 μL methanol or water was taken which was subtracted from the absorbance of the samples at each time interval to calculate the absorbance change (ΔA). The FRAP value at time interval t (FRAP valuet) was calculated according to the formula: FRAP valuet(M)=(ΔatFl/ΔatFe^2+)×10^−5 Where ΔatFl is the absorbance change after the time interval t (6 and 65 min) relative to the tested flavonoid at the concentration of 10 μM and ΔatFe^2+ is the absorbance change at the same time interval relative to ferrous sulfate at the same concentration (Pal, C; et al. Free Radic Biol Med, 49(2), 258-267, 2010, Firuzi, O; et al. Biochim. Biophys. Acta 1721:174-184; 2005).

[2] = DPPH free radical scavenging assay; details: compounds 100 μM; 517 nm (Table 2)
Procedure: The antioxidant property of different tryptamine derivatives were assessed and compared with the known antioxidants for potency. A range of different synthesized compounds and known anti oxidants, quercetin, ascorbic acid and gallic acid were analyzed by the FRAP assay. The FRAP assay is based on the measurement of the ability of the substance to reduce Fe^3+ to Fe^2+, greater the reducing ability greater the anti oxidant property. Antioxidants reduce Fe^3+-TPTZ in to blue colored Fe^2+-TPTZ complex, which results in an increase in the absorbance at 595 nm giving a FRAP value. […] Absorbance changes at different time intervals (FIG. 6) as well as at different concentrations (FIG. 7) at time 6 min in the presence of different compounds at 595 nm were measured. FRAP values at 6 min and 65 min were calculated from different tryptamine derivatives and some known antioxidant (Table 1). […] DPPH assay based on the DPPH free radicals scavenging power of the antioxidant molecules. Higher the scavenging power higher will be the antioxidant property. […] This assay was performed in presence of some known antioxidants such as ascorbic acid, quercetin and gallic acid.
2,2-Diphenyl-1-Picrylhydrazyl (DPPH) is a stable free radical that can accept hydrogen radical or an electron and become a stable diamagnetic molecule. The antioxidants can scavenge the DPPH by donating hydrogen as visualized by discoloration of the DPPH radical from purple to yellow (Pal, C; et al. Free Radic Biol Med, 49(2), 258-267; 2010, Ben Farhat, M.; et al. J. Agric. Food Chem. 57:10349-10356; 2009, Han, J; et al. Wei Sheng Yan Jiu 38:596-598; 2009). The assay system contained 1 mL of compounds under investigation dissolved (in methanol, some compound dissolved in water) at different concentrations in the range 10-100 μM solution and 4 ml of DPPH (0.15 mM) in methanol (80% in water v/v) and mixed well. It was allowed to stand for 30 min at 27° C. away from light. Ascorbic acid at the same concentration was taken as positive control. The absorbance of the solution was measured spectrophotometrically at 517 nm and from the decrease of absorption; the antioxidant activity of different tryptamine derivatives were determined.

rats = assay: Toxicity (death) after injection in rats; assay type: in vivo; details: injected; dose not given
[3] = literature (Shahrzad et al. 2001); cited from earlier work
CaCo2 colon cancer cells = details: literature (Shoeb et al. 2006); cited from earlier work

Row | Structure (SMILES) | FRAP Value6 min (μM) M ± SD [1] | FRAP Value65 min (μM) M ± SD [1] | Absorbance change (ΔA) at 30 min [2] | death of rats after injection (rats) | bioavailability in plasma [3] | in vitro cytotoxic activity (CaCo2 colon cancer cells)
1 | NCCc1c[nH]c2ccc(OC(=O)CCCC(=O)NCCc3c[nH]c4ccc(O)cc34)cc12 [Compound 6c, 3-(2-aminoethyl)-1H-indol-5-yl 5-(2-(5-hydroxy-1H-indol-3-yl)ethylamino)-5-oxopentanoate] | 17.51 ± 0.38 µM | 29.78 ± 3.87 µM | 0.19 ± 0.03 | all the rats were found dead within 20 mins |  | 
2 | O=C(O)c1cc(O)c(O)c(O)c1 [Gallic acid, reference compound] | 33.90 ± 4.92 µM | 46.59 ± 8.41 µM |  |  | low | 
3 | O=C(/C=C/c1ccc(O)cc1)NCCc1c[nH]c2ccc(O)cc12 [Compound 2b, (E)-N-(2-(5-hydroxy-1H-indol-3-yl)ethyl)-3-(4-hydroxyphenyl)acrylamide] | 3.09 ± 0.13 µM | 7.44 ± 1.47 µM | 0.12 ± 0.01 |  |  | shows in vitro cytotoxic activity
